Experimental data from the NIST ThermoML archive (doi:10.1016/j.jct.2016.02.007).
± gives the expanded uncertainty stated by the source.

Assay: wn = mass fraction of the nth substance listed
Details: 101.3 kPa, Liquid, Vibrating tube method

CN(C)CCCO [3-dimethylamino-1-propanol] + O
mass density [kg/m3]
Details	w1 = 0.1	w1 = 0.2	w1 = 0.3	w1 = 0.4	w1 = 0.5	w1 = 0.6	w1 = 0.7	w1 = 0.8	w1 = 0.9	w1 = 1
293.15 K	992.9 ± 4.9	989.7 ± 4.8	986.6 ± 5	981.7 ± 5	975.1 ± 5.2	962.4 ± 5.5	948.3 ± 5.7	933.1 ± 6.1	910.9 ± 6.7	886.7 ± 4.8
298.15 K	991.5 ± 4.9	987.7 ± 4.9	983.9 ± 4.9	978.3 ± 5	971.4 ± 5.2	958.5 ± 5.5	944.3 ± 5.7	929.2 ± 6.1	907.1 ± 6.7	883 ± 4.8
303.15 K	989.8 ± 4.9	985.5 ± 4.9	980.9 ± 5	974.9 ± 5	967.6 ± 5.2	954.6 ± 5.6	940.2 ± 5.7	925.2 ± 6.1	903.2 ± 6.7	879.1 ± 4.8
308.15 K	987.9 ± 5	983.1 ± 4.9	978 ± 5	971.4 ± 5	963.8 ± 5.3	950.6 ± 5.6	936.1 ± 5.7	921.2 ± 6.1	899.2 ± 6.7	875.1 ± 4.8
313.15 K	985.9 ± 5	980.4 ± 5	974.8 ± 5	967.8 ± 5.1	959.9 ± 5.3	946.5 ± 5.6	932 ± 5.7	917.1 ± 6.1	895.2 ± 6.7	871.2 ± 4.8
318.15 K	983.6 ± 5	977.3 ± 5	971.6 ± 5	964.2 ± 5.1	956 ± 5.3	942.4 ± 5.6	927.8 ± 5.7	912.9 ± 6.1	891.1 ± 6.7	867.2 ± 4.8
323.15 K	981.2 ± 5	975 ± 5	968.2 ± 5.1	960.4 ± 5.1	952.1 ± 5.3	938.2 ± 5.6	923.6 ± 5.7	908.7 ± 6.1	887 ± 6.7	863.1 ± 4.8
328.15 K	978.6 ± 5	972 ± 5	964.7 ± 5.1	956.7 ± 5.1	948 ± 5.3	934 ± 5.6	919.3 ± 5.7	904.5 ± 6.1	882.9 ± 6.6	859.1 ± 4.8
333.15 K	975.9 ± 5.1	968.9 ± 5.1	961 ± 5.1	952.8 ± 5.1	943.9 ± 5.4	929.7 ± 5.6	915 ± 5.7	900.2 ± 6.1	878.7 ± 6.6	855 ± 4.8
338.15 K	973.1 ± 5.1	965.8 ± 5.1	957.9 ± 5.1	948.9 ± 5.2	939.8 ± 5.4	925.4 ± 5.7	910.6 ± 5.7	895.8 ± 6	874.4 ± 6.6	850.8 ± 4.8
343.15 K	970.1 ± 5.1	962.5 ± 5.2	954.2 ± 5.1	944.9 ± 5.2	935.6 ± 5.4	921 ± 5.7	906.2 ± 5.6	891.4 ± 5.9	870.1 ± 6.6	846.7 ± 4.8
